From US20090209497A1, “METHOD OF TREATING LYMPHANGIOLEIOMYOMATOSIS (LAM)” (priority 2005, published 2009)

Experiment: Doxycycline therapy of a patient with LAM: clinical improvement (FEV1, O2 saturation, 6-min walk test)
Assay type: in vivo, human
Details: person with LAM, doxycycline 20 mg/day escalated up to 100 mg/day
Excerpt: FIGS. 1A-1B show successful treatment of LAM with doxycycline: monitoring therapeutic efficacy and measuring clinical improvement. […] Data points represent single measurements taken prior to or during doxycycline therapy. A person was diagnosed with LAM in 1975 after a partial nephrectomy for angiomyolipoma. Although stable for many years, their condition had deteriorated with an FEV1 as low as 0.48 liters (21 percent of predicted), and they were placed on the lung transplant list. […] Based on these elevated MMP levels, doxycycline was initiated at an initial dose of 20 mg/day. Dose escalation (up to 100 mg/day) was determined by monthly urinary MMP profiling (FIG. 1A) and how well the drug was tolerated. […] Telegraphic speech, which was present, resolved.

## C[C@H]1c2cccc(O)c2C(=O)C2=C(O)[C@]3(O)C(=O)C(C(N)=O)=C(O)[C@@H](N(C)C)[C@@H]3[C@@H](O)[C@@H]21 [doxycycline]
Before treatment 21 percent of predicted
  FEV1, percent of predicted: 35% of predicted
Before treatment as low as 0.48 liters
  FEV1 (lung capacity): 0.91 L
